Measured values from EP0534511A1, “HIV protease inhibitors useful for the treatment of aids” (MERCK & CO. INC., priority 1991, dated 1993).

Molecular target: T1, HIV protease (Human immunodeficiency virus type 1 group M subtype B, UniProt P04585)
T1 construct: the protease expressed in Eschericia coli; made in house; host or cells: Escherichia coli
Test: Assay for Inhibition of Microbial Expressed Viral Protease
Format: biochemical
Conditions: protease expressed in Eschericia coli; peptide substrate Val-Ser-Gln-Asn-(betanapthyl)Ala-Pro-Ile-Val 0.5 mg/mL; 50 mM Na acetate, pH 5.5, 30°C, 1 hour; HPLC; read-out: IC₅₀
Experimental: Assay for Inhibition of Microbial Expressed Viral Protease
Inhibition studies of the reaction of the protease expressed in Eschericia coli with a peptide substrate [Val-Ser-Gln-Asn-(betanapthyl)Ala-Pro-Ile-Val, 0.5 mg/mL at the time the reaction is initiated] were in 50 mM Na acetate, pH 5.5, at 30°C for 1 hour. Various concentrations of inhibitor in 1.0 ul DMSO were added to 25 ul of the peptide solution in water. The reaction is initiated by the addition of 15 ul of 0.33 nM protease (0.11 ng) in a solution of 0.133 M Na acetate pH 5.5 and 0.26% bovine serum albumin. The reaction was quenched with 160 ul of 5% phosphoric acid. Products of the reaction were separated by HPLC (VYDAC wide pore 5 cm C-18 reverse phase, acetonitrile gradient, 0.1% phosphoric acid). The extent of inhibition of the reaction was determined from the peak heights of the products.

IC50 [nM]	Compound
0.37	CC(C)[C@H](C[C@H](O)[C@H](CC1CCCCC1)NC(=O)O[C@H]1CCOC1)C(=O)N[C@H]1c2ccccc2C[C@H]1O [A, N-[(2R)-hydroxy-1(S)-indanyl]-5(S)-(3(S)-tetrahydrofuranyloxycarbonylamino)-4(S)-hydroxy-6-cyclohexyl-2(R)-isopropyl hexanamide]
0.04	O=C(N[C@@H](CC1CCCCC1)[C@@H](O)C[C@@H](Cc1ccccc1)C(=O)N[C@H]1c2ccccc2C[C@H]1O)O[C@H]1CCOC1 [C, N-[(2R)-hydroxy-1(S)-indanyl]-5(S)-(3(S)-tetrahydrofuranyloxycarbonylamino)-4(S)-hydroxy-6-cyclohexyl-2(R)-phenylmethyl hexamamide]
